Data on 24 compounds can be found in US20230339970A1, “CASEIN KINASE 1 DELTA MODULATORS” (priority 2020, published 2023).

In one test the target is T1, human CSNK1D (Homo sapiens, UniProt P48730).
T1 construct: expressed in transfected cells
The experiment in a line: Whole Cell nBRET CSNK1D Binding Assay. The conditions noted are these: living CHO cells stably expressing human CSNK1D tagged with nanoluciferase; NanoBret tracer 130 nM; 2 hours at 37 C.

Test [1] has as its target T2, human recombinant GST cleaved CSNK1D (Homo sapiens, UniProt P48730).
T2 construct: GST (cleaved yes); purchased University of Dundee clone DU 19064
The test can be described thus: Purified Enzyme Assay (ADP-Glo CSNK1D Kinase Assay). It counts as biochemical. Particulars: 2 nM CSNK1D; peptide substrate 150 μM; ATP 20 μM; 45 minutes at room temperature. The method, boiled down:
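GST-cleaved human recombinant CSNK1D phosphorylates peptide PLSRTL-pS-VASLPGL with ATP; compounds added in dose-response, 45 min at room temperature. ADP formed measured by ADP-Glo luminescence and converted to percent activity.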
For orientation: ADP-Glo turns the ADP formed in a reaction into a luminescent signal.

Structures are written as SMILES.

T2 sequence (P48730 whole entry): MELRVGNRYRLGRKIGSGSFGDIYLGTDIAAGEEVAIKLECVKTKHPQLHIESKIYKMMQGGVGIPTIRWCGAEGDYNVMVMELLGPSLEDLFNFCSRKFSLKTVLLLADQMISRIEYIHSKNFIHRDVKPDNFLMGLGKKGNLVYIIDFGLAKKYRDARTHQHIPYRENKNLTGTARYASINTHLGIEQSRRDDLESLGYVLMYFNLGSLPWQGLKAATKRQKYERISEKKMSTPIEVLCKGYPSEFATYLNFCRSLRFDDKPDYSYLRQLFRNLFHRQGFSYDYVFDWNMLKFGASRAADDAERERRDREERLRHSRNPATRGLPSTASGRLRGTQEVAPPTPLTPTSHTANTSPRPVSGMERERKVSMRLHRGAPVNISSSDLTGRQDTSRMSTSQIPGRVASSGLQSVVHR
T1 sequence (P48730 whole entry): as above

Usually IC50 stands for the concentration that inhibits the measured activity by half. Regarding `Fc1ccc(-c2nn3c(c2-c2ccnc4[nH]ncc24)COCC3)cc1` [Example 70, 2-(4-Fluorophenyl)-3-(1H-pyrazolo[3,4-b]pyridin-4-yl)-6,7-dihydro-4H-pyrazolo[5,1-c][1,4]oxazine], the IC50 was 0.037 µM at human CSNK1D and 0.002 µM in test [1].
Taken in the same sequence, the figures for `Fc1ccc(-c2nn3c(c2-c2ccnc4[nH]ncc24)CCC2(C3)CC2(F)F)cc1` (single isomer, unassigned) [Example 325, (*R)-2,2-Difluoro-2′-(4-fluorophenyl)-3′-(1H-pyrazolo[3,4-b]pyridin-4-yl)-4′,5′-dihydro-7′H-spiro[cyclopropane-1,6′-pyrazolo[1,5-a]pyridine]] were 0.001 µM and 0.001 µM.
The matching figures for `CC[C@]1(C)Cn2nc(-c3ccc(F)cn3)c(-c3ccnc4[nH]ncc34)c2CO1` (single isomer, unassigned) [Example 169, (*R)-6-Ethyl-2-(5-fluoropyridin-2-yl)-6-methyl-3-(1H-pyrazolo[3,4-b]pyridin-4-yl)-6,7-dihydro-4H-pyrazolo[5,1-c][1,4]oxazine]: 0.134 µM and 0.004 µM.
Take `Fc1ccc(-c2nn3c(c2-c2ccnc4[nH]ncc24)CO[C@H](C(F)(F)F)C3)cc1` [Example 100, (S)-2-(4-Fluorophenyl)-3-(1H-pyrazolo[3,4-b]pyridin-4-yl)-6-(trifluoromethyl)-6,7-dihydro-4H-pyrazolo[5,1-c][1,4]oxazine]: the figures for the half-inhibitory concentration (IC50) (on human CSNK1D; in test [1]) were 0.697 µM and 0.055 µM, respectively.
Taken in the same sequence, the figures for `CC1(C)Cn2nc(-c3ccc(F)cc3)c(-c3ccnc4[nH]ncc34)c2CO1` [Example 144, 2-(4-Fluorophenyl)-6,6-dimethyl-3-(1H-pyrazolo[3,4-b]pyridin-4-yl)-6,7-dihydro-4H-pyrazolo[5,1-c][1,4]oxazine] were 0.003 µM and 0.001 µM.
Consider `CC1(C(F)(F)F)Cn2nc(-c3ccc(F)cc3)c(-c3ccnc4[nH]ncc34)c2CO1` (single isomer, unassigned) [Example 417, (*)-2-(4-Fluorophenyl)-6-methyl-3-(1H-pyrazolo[3,4-b]pyridin-4-yl)-6-(trifluoromethyl)-6,7-dihydro-4H-pyrazolo[5,1-c][1,4]oxazine], for which the half-inhibitory concentration (IC50) at human CSNK1D came to 0.003 µM; in test [1], 0.001 µM.
The matching figures for `[2H]C([2H])([2H])C1(C([2H])([2H])[2H])Cn2nc(-c3ccc(F)cn3)c(-c3cc(C)nc4[nH]ncc34)c2CO1` [Example 401, 2-(5-Fluoropyridin-2-yl)-6,6-bis(methyl-d3)-3-(6-methyl-1H-pyrazolo[3,4-b]pyridin-4-yl)-6,7-dihydro-4H-pyrazolo[5,1-c][1,4]oxazine]: 0.043 µM and 0.004 µM.
Turning to `CC1(C)Cn2nc(-c3ccc(F)cn3)c(-c3ccn4ncc(N)c4c3)c2CO1` [Example 381, 5-[2-(5-Fluoro-2-pyridyl)-6,6-dimethyl-4,7-dihydropyrazolo[5,1-c][1,4]oxazin-3-yl]pyrazolo[1,5-a]pyridin-3-amine], the IC50 at human CSNK1D amounted to 0.228 µM; in test [1] it was 0.064 µM.
The matching figures for `CC1(C(F)(F)F)Cn2nc(-c3ccc(F)cc3)c(-c3ccn4nccc4c3)c2CO1` (single isomer, unassigned) [Example 413, (*S)-2-(4-Fluorophenyl)-6-methyl-3-(pyrazolo[1,5-a]pyridin-5-yl)-6-(trifluoromethyl)-6,7-dihydro-4H-pyrazolo[5,1-c][1,4]oxazine]: 0.075 µM and 0.027 µM.
For `Cc1nc(-c2c(-c3ccc(F)cn3)nn3c2CC[C@H]2[C@@H]3C2(F)F)c2cn[nH]c2n1` (single isomer, unassigned) [Example 361, (5a*S,6a*R)-6,6-Difluoro-2-(5-fluoropyridin-2-yl)-3-(6-methyl-1H-pyrazolo[3,4-d]pyrimidin-4-yl)-5,5a,6,6a-tetrahydro-4H-cyclopropa[e]pyrazolo[1,5-a]pyridine], the IC50 at human CSNK1D came out at 0.349 µM; in test [1], 0.497 µM.
As to `Fc1ccc(-c2nn3c(c2-c2ccnc4[nH]ncc24)C[C@@H]2[C@H](C3)C2(F)F)cc1` (stereo in doubt) [Example 362, (4a*R,5a*R)-5,5-Difluoro-2-(4-fluorophenyl)-3-(1H-pyrazolo[3,4-b]pyridin-4-yl)-4a,5,5a,6-tetrahydro-4H-cyclopropa[d]pyrazolo[1,5-a]pyridine], the concentration for half-maximal inhibition (IC50) on human CSNK1D came out at 0.003 µM; in test [1] it was 0.001 µM.
The matching figures for `Fc1ccc(-c2nn3c(c2-c2ccnc4[nH]ncc24)CCC2(C3)CC2(F)F)nc1` (single isomer, unassigned) [Example 327, (*S)-2,2-Difluoro-2′-(5-fluoropyridin-2-yl)-3′-(1H-pyrazolo[3,4-b]pyridin-4-yl)-4′,5′-dihydro-7′H-spiro[cyclopropane-1,6′-pyrazolo[1,5-a]pyridine]]: 0.097 µM and 0.014 µM.
The matching figures for `Fc1ccc(-c2nn3c(c2-c2c(F)cnc4[nH]ncc24)CC2(C3)CC2(F)F)nc1` (single isomer, unassigned) [Example 259, (*R)-1′.1′-Difluoro-3-(5-fluoro-1H-pyrazolo[3,4-b]pyridin-4-yl)-2-(5-fluoro-2-pyridyl)spiro[4,6-dihydropyrrolo[1,2-b]pyrazole-5,2′-cyclopropane]]: 1.92 µM and 0.079 µM.
The matching figures for `C[C@@H]1[C@@H](C)OCc2c(-c3ccnc4[nH]ncc34)c(-c3ccc(F)cn3)nn21` (stereo in doubt) [Example 118, (6*R,7*R)-2-(5-Fluoropyridin-2-yl)-6,7-dimethyl-3-(1H-pyrazolo[3,4-b]pyridin-4-yl)-6,7-dihydro-4H-pyrazolo[5,1-c][1,4]oxazine]: 1.16 µM and 0.049 µM.
Take `CC1(C)Cn2nc(-c3ccc(F)cn3)c(-c3c(F)cnc4[nH]nc(Cl)c34)c2CO1` [Example 392, 3-(3-Chloro-5-fluoro-1H-pyrazolo[3,4-b]pyridin-4-yl)-2-(5-fluoropyridin-2-yl)-6,6-dimethyl-6,7-dihydro-4H-pyrazolo[5,1-c][1,4]oxazine]: the figures for the IC50 (at human CSNK1D; in test [1]) were 0.026 µM and 0.007 µM, respectively.
Taken in the same sequence, the figures for `Cc1nc2[nH]ncc2c(-c2c(-c3ccc(F)cn3)nn3c2OC[C@@H]2C[C@@H]2C3)c1F` (stereo in doubt) [Example 483, (5a*S,6a*R)-3-(5-Fluoro-6-methyl-1H-pyrazolo[3,4-b]pyridin-4-yl)-2-(5-fluoropyridin-2-yl)-5a,6,6a,7-tetrahydro-5H-cyclopropa[e]pyrazolo[5,1-b][1,3]oxazepine] were 0.048 µM and 0.005 µM.
Taken in the same sequence, the figures for `Fc1ccc(-c2nn3c(c2-c2ccnc4[nH]ncc24)CCC(F)(F)C3)cc1` [Example 42, 4-(6,6-Difluoro-2-(4-fluorophenyl)-4,5,6,7-tetrahydropyrazolo[1,5-a]pyridin-3-yl)-1H-pyrazolo[3,4-b]pyridine] were 0.016 µM and 0.003 µM.
The matching figures for `[2H]C([2H])([2H])OC([2H])([2H])[C@@]1(F)CCc2c(-c3cc(C)nc4[nH]ncc34)c(-c3ccc(F)cn3)nn2C1` (single isomer, unassigned) [Example 313, (*R)-4-[6-[(Methoxy-d3)methyl-d2]-6-fluoro-2-(5-fluoro-2-pyridyl)-5,7-dihydro-4H-pyrazolo[1,5-a]pyridin-3-yl]-6-methyl-1H-pyrazolo[3,4-b]pyridine]: 5.12 µM and 0.102 µM.
Take `CC1COCc2c(-c3ccnc(CO)c3)c(-c3ccc(F)cc3)nn21` (stereo not drawn) [Example 90, (4-(2-(4-Fluorophenyl)-7-methyl-6,7-dihydro-4H-pyrazolo[5,1-c][1,4]oxazin-3-yl)pyridin-2-yl)methanol]: the IC50 at human CSNK1D amounted to 0.352 µM; in test [1] it was 0.016 µM.
Taken in the same sequence, the figures for `CC1(C)Cn2nc(-c3ccc(F)cn3)c(-c3ccnc(NC(=O)C4CC4)c3)c2CO1` [Example 134, N-(4-(2-(5-Fluoropyridin-2-yl)-6,6-dimethyl-6,7-dihydro-4H-pyrazolo[5,1-c][1,4]oxazin-3-yl)pyridin-2-yl)cyclopropanecarboxamide] were 0.007 µM and 0.001 µM.
Taken in the same sequence, the figures for `COCC1(F)CCc2c(-c3c(F)cnc4[nH]ncc34)c(-c3ccc(F)cn3)nn2C1` (single isomer, unassigned) [Example 302, (*S)-5-Fluoro-4-[6-fluoro-2-(5-fluoro-2-pyridyl)-6-(methoxymethyl)-5,7-dihydro-4H-pyrazolo[1,5-a]pyridin-3-yl]-1H-pyrazolo[3,4-b]pyridine] were 3.25 µM and 0.132 µM.
The matching figures for `Cc1nc(-c2c(-c3ccc(F)cc3)nn3c2COC(C(F)(F)F)C3)c2cn[nH]c2n1` (single isomer, unassigned) [Example 377, (*S)-2-(4-Fluorophenyl)-3-(6-methyl-1H-pyrazolo[3,4-d]pyrimidin-4-yl)-6-(trifluoromethyl)-6,7-dihydro-4H-pyrazolo[5,1-c][1,4]oxazine]: 2.48 µM and 0.046 µM.
Regarding `Cc1n[nH]c2nccc(-c3c(-c4ccc(F)cn4)nn4c3COC(C)(C(F)(F)F)C4)c12` (single isomer, unassigned) [Example 419, (*S)-2-(5-Fluoropyridin-2-yl)-6-methyl-3-(3-methyl-1H-pyrazolo[3,4-b]pyridin-4-yl)-6-(trifluoromethyl)-6,7-dihydro-4H-pyrazolo[5,1-c][1,4]oxazine], the concentration for half-maximal inhibition (IC50) at human CSNK1D is more than 10 µM; in test [1], 0.235 µM.
Take `CC[C@@H]1Cn2nc(-c3ccc(F)cn3)c(-c3ccnc4[nH]ncc34)c2CO1` (single isomer, unassigned) [Example 95, (*R)-6-Ethyl-2-(5-fluoropyridin-2-yl)-3-(1H-pyrazolo[3,4-b]pyridin-4-yl)-6,7-dihydro-4H-pyrazolo[5,1-c][1,4]oxazine]: the 50% inhibitory concentration (IC50) at human CSNK1D came out at 0.557 µM; in test [1], 0.019 µM.
